Where two headings read alike, the source gives them in different places.
How the values were obtained:
hMOR-1 [1] = biological target: T1, hMOR-1 (Homo sapiens, UniProt P35372); test: Opioid receptor competitive binding assay, MOR (3H-DAMGO); conditions: Ki MOR, 3H-DAMGO, hMOR-1 stably transfected into CHO cells
T1 construct: purchased Amersham Biosciences; host or cells: stably transfected CHO cells (membrane preparation)
Experimental: (§1) For selected compounds, Ki for MOR, DOR, and KOR were determined according to the following procedure: Recombinant hMOR-1 membrane preps from stably transfected CHO cells and recombinant hDOR-1 membrane preps from stably transfected HEK-293 cells were purchased from Amersham Biosciences. Guinea pig cerebellum preparations were used for KOR assays.
(§2) Each microassay from an assay plate was filtered through an individual well of a Packard GF/B 96-well filter plate (glass fiber filter) to collect the membranes. Each well was washed twice with 200 μL of ice cold wash buffer (50 mM Tris, pH 7.4). The filter plate was allowed to dry overnight, the back was sealed, and Packard Bioscience Microscint PS scintillation fluid (75 μL) was added to each well, which was then counted for ^3H for 2 minutes using a Packard Bioscience TopCount scintillation counter plate reader.
(§3) Each compound was assayed at 8 concentrations, using half-log serial dilutions. Each concentration was tested in triplicate, and the ^3H cpm were averaged.
(§4) This concentration was determined experimentally by scintillation counting an aliquot of the radioligand stock solution used in the assay.
(§5) Kd=the binding constant for the radioligand.
(§6) This triplicate experiment was repeated three times for the MOR and twice for the DOR and the KOR.

hMOR-1 [2] = biological target: T1, hMOR-1; test: MOR GTP-γ-S assay (MOR activation); format: biochemical; conditions: CHO membranes with hMOR-1; for % GTP-γ-35S bound: Table 15, compound 10 mM (footnote), percentage of DAMGO induced GTP-g-35S specific binding; for % GTP-γ-S bound: Table 16, compound 10 μM, percentage of DAMGO induced GTP-γ-35S specific binding
Experimental: MOR GTP-γ-S assay was run in the same 200 μL, 96 well format as the binding assay. Each microassay contained experimental compound, 0.04 nM GTP-γ-^35S, 9 μM GDP, and about 0.02 nM MOR (from stably transfected CHO cells), in assay buffer (50 mM Tris-HCl, 3 mM MgCl2, 0.2 mM EGTA, 100 mM NaCl, pH 7.4). The assays were incubated for two to three hours at room temperature, then filtered onto a filter plate. The plate was dried; scintillation fluid was added, and the wells were counted for ^35S. Blank assays were run to determine non-specific binding. […] The results were averaged; the non-specific counts were subtracted, and the resulting value was expressed as a percent of the value obtained for DAMGO. The error reported is two standard deviations from the mean of the quadruplicate experiment. The values were compared using one way Anova with Tukey's post-hoc analysis.

hDOR-1 = biological target: T2, hDOR-1 (Homo sapiens, UniProt P41143); test: Opioid receptor competitive binding assay, DOR; conditions: for Ki DOR/Ki MOR: Table 13, selectivity for MOR versus DOR (footnote: 3H-DPDPE, hDOR-1)
T2 construct: purchased Amersham Biosciences; host or cells: stably transfected HEK-293 cells (membrane preparation)
Experimental: as §1, §2, §3, §4, §5, §6

KOR = biological target: T3, KOR (Cavia porcellus, UniProt P41144); test: Opioid receptor competitive binding assay, KOR (3H-U-69,593); parameters: species or system guinea pig; conditions: for Ki KOR/Ki MOR: Table 13, selectivity for MOR versus KOR
T3 construct: from tissue; host or cells: guinea pig cerebellum preparation
Experimental: as §1, §2, §3, §6

[3] = Table 4, errors 95% confidence interval
[4] = Ki DOR, Table 7, 3H-diprenorphine, hDOR-1 stably transfected into HEK-293 cells, errors two standard deviations
[5] = Ki KOR, Table 10, 3H-U-69,593, guinea pig cerebellum preparation, errors two standard deviations

Cc1cc(O)cc(C)c1CC(N)C(O)C/C=C/C(O)C(Cc1ccccc1)C(=O)NC(Cc1ccccc1)C(N)=O (single isomer, unassigned) [(S,R,R,R)-25, 7-(1-Carbamoyl-2-phenyl-ethylcarbamoyl)-2,6-dihydroxy-1-(4-hydroxy-2,6-dimethyl-benzyl)-8-phenyl-oct-4-enyl-ammonium] was tested, and the Ki (hMOR-1 [1]; [3]) was 1.6 ± 0.9 nM, the “% GTP-γ-35S bound” value (hMOR-1 [2]) was 43 ± 9% and the Ki (hDOR-1; [4]) was 85 ± 13 nM. For the same molecule, the “Ki DOR/Ki MOR” value (hDOR-1) was 53, the Ki (KOR; [5]) was 25 ± 14 nM and the “Ki KOR/Ki MOR” value (KOR) was 16.

For Cc1cc(O)cc(C)c1CC(N)C(O)C/C=C/C(O)C(Cc1ccccc1)C(=O)NCCc1ccccc1 (single isomer, unassigned) [(S,R,S,R)-26, 2,6-Dihydroxy-1-(4-hydroxy-2,6-dimethyl-benzyl)-7-phenethylcarbamoyl-8-phenyl-oct-4-enyl-ammonium], the Ki (hMOR-1 [1]; [3]) was 0.24 ± 0.05 nM, the “% GTP-γ-35S bound” value (hMOR-1 [2]) was 49 ± 4% and the Ki (hDOR-1; [4]) was 123 ± 8 nM. For the same molecule, the “Ki DOR/Ki MOR” value (hDOR-1) was 510, the Ki (KOR; [5]) was 51 ± 1 nM and the “Ki KOR/Ki MOR” value (KOR) was 210.

In the case of NC(=O)C(Cc1ccccc1)NC(=O)C(Cc1ccccc1)C(O)/C=C/C(O)CC(N)Cc1ccc(O)cc1 (single isomer, unassigned) [(R, R, S, S)-43, 7-(1-Carbamoyl-2-phenyl-ethylcarbamoyl)-3,6-dihydroxy-1-(4-hydroxy-benzyl)-8-phenyl-oct-4-enyl-ammonium], the Ki (hMOR-1 [1]; Table 5) is reported as 38 ± 13 nM, the “% GTP-γ-S bound” value (hMOR-1 [2]) is reported as 30 ± 6% and the Ki (hDOR-1; read-out: Ki DOR) is reported as 1200 ± 100 nM. It also gave a Ki (KOR; read-out: Ki KOR) of 880 ± 550 nM.

Cc1cc(O)cc(C)c1CC(N)C(O)C/C=C/C(O)C(Cc1ccccc1)C(=O)NCCc1ccccc1 (single isomer, unassigned) [(S,S,R,R)-26, 2,6-Dihydroxy-1-(4-hydroxy-2,6-dimethyl-benzyl)-7-phenethylcarbamoyl-8-phenyl-oct-4-enyl-ammonium] was tested, and the Ki (hMOR-1 [1]; [3]) was 0.37 ± 0.13 nM, the “% GTP-γ-35S bound” value (hMOR-1 [2]) was 48 ± 9% and the Ki (hDOR-1; [4]) was 26 ± 3 nM. For the same molecule, the “Ki DOR/Ki MOR” value (hDOR-1) was 70, the Ki (KOR; [5]) was 64 ± 14 nM and the “Ki KOR/Ki MOR” value (KOR) was 170.

In the case of Cc1cc(O)cc(C)c1CC(N)C(O)C/C=C/C(O)C(Cc1ccccc1)C(=O)NC(Cc1ccccc1)C(N)=O (single isomer, unassigned) [(S,S,S,R)-25, 7-(1-Carbamoyl-2-phenyl-ethylcarbamoyl)-2,6-dihydroxy-1-(4-hydroxy-2,6-dimethyl-benzyl)-8-phenyl-oct-4-enyl-ammonium], the Ki (hMOR-1 [1]; [3]) is reported as 0.17 ± 0.07 nM, the “% GTP-γ-35S bound” value (hMOR-1 [2]) is reported as 35 ± 5% and the Ki (hDOR-1; [4]) is reported as 40 ± 1 nM. The “Ki DOR/Ki MOR” value (hDOR-1) was 230, the Ki (KOR; [5]) was 22 ± 9 nM and the “Ki KOR/Ki MOR” value (KOR) was 130.

For NC(=O)C(Cc1ccccc1)NC(=O)C(Cc1ccccc1)C(O)/C=C/C(O)CC(N)Cc1ccc(O)cc1 (single isomer, unassigned) [(R, S, R, R)-43, 7-(1-Carbamoyl-2-phenyl-ethylcarbamoyl)-3,6-dihydroxy-1-(4-hydroxy-benzyl)-8-phenyl-oct-4-enyl-ammonium], the Ki (hMOR-1 [1]; Table 5) was 20 ± 3 nM, the “% GTP-γ-S bound” value (hMOR-1 [2]) was 68 ± 10% and the Ki (hDOR-1; read-out: Ki DOR) was 2500 ± 300 nM. It also gave a Ki (KOR; read-out: Ki KOR) of 270 ± 30 nM.
